The results in this text go back to US4138403A, “Azabicycloheptanes” (Beecham Group Limited, priority 1975, dated 1979).

What all share (format): biochemical
Assay [1] addresses β-lactamase Ps. aerug. (Pseudomonas aeruginosa, UniProt P24735). The assay can be described thus: β-lactamase inhibition, Ps. aerug. enzyme. The settings on record: read-out: % Inhibition of - lactamases at 40 μg/ml, Ps. aerug. Here is the method: (§1) The β-lactamase inhibiting activity of certain compounds of the formula (e36) was determined by the method described in Belgian Patent No. 827,926 and the results are shown in Table 1.

The test system of assay [2] is β-lactamase Citrobac. The assay can be described thus: β-lactamase inhibition, Citrobac. enzyme. On the procedure: as §1
Assay [3] deals with β-lactamase Staph. Russell (Staphylococcus aureus, UniProt P00807). The assay is described as follows: β-lactamase inhibition, Staph. Russell enzyme. The settings on record: read-out: % Inhibition of - lactamases at 40 μg/ml, Staph. Russell. On the procedure:
as §1

The target of assay [4] is β-lactamase E.Coli JT4 (Escherichia coli, UniProt P62593). The assay is described as follows: β-lactamase inhibition, E.Coli JT4 enzyme. The settings on record: read-out: % Inhibition of - lactamases at 40 μg/ml, E.Coli JT4. On the procedure:
as §1

Assay [5] addresses β-lactamase Ps. dalgl. (Pseudomonas aeruginosa, UniProt P16897). The assay is described as follows: β-lactamase inhibition, Ps. dalgl. enzyme. The settings on record: read-out: % Inhibition of - lactamases at 40 μg/ml, Ps. dalgl. Here is the method:
as §1

Assay [6] relates to β-lactamase Proteus C889. The assay is described as follows: β-lactamase inhibition, Proteus C889 enzyme. On the procedure:
as §1

The test system of assay [7] is β-lactamase Kleb. ε 70. The assay is described as follows: β-lactamase inhibition, Kleb. ε 70 enzyme. On the procedure:
as §1

Structures are written as SMILES.

Chain of β-lactamase E.Coli JT4 (P62593 24-286 limits assumed): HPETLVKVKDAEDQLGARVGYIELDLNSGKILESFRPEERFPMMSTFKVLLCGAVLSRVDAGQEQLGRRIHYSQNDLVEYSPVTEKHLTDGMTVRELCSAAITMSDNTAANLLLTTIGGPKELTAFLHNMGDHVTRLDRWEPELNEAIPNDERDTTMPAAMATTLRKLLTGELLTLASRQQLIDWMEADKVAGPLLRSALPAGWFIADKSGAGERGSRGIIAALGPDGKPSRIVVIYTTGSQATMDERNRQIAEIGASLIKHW
Chain of β-lactamase Staph. Russell (P00807 25-281): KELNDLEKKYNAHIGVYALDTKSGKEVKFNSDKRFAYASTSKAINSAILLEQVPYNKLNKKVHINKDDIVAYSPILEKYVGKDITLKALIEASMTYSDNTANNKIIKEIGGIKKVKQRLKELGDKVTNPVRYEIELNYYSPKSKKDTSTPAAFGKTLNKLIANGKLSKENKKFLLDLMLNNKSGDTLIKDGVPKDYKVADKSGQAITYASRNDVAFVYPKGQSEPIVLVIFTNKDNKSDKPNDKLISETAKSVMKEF
Chain of β-lactamase Ps. dalgl. (P16897 18-288): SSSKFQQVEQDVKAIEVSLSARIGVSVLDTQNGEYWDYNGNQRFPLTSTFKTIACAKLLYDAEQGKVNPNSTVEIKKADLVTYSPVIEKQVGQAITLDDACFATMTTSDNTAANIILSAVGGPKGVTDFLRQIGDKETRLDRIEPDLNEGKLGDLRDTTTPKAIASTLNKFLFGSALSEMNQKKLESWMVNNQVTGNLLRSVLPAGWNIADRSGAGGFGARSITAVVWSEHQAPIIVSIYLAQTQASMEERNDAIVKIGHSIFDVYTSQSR
Chain of β-lactamase Ps. aerug. (P24735 27-397): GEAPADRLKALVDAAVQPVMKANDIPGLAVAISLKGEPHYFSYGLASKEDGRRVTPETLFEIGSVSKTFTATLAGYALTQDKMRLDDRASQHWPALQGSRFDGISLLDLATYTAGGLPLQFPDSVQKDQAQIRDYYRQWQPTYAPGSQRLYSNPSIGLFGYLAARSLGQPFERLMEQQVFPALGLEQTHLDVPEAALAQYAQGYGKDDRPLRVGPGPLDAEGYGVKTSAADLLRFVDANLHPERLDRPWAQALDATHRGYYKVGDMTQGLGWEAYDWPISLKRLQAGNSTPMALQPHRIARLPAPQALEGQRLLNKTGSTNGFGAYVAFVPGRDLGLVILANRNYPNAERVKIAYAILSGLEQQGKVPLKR

For `COC(=O)[C@H]1[C@H](CCO)O[C@@H]2CC(=O)N21` (relative stereo) [CH2 CH2 OH, Me, (2RS,3SR,5RS)], the inhibition at 40 µg/mL in assay [1] turned out to be 10%; in assay [3], 10%; in assay [4] it was 15%; in assay [5], 0%. In addition, the “% Inhibition of - lactamases at 40 μg/ml, Citrobac.” value (“% Inhibition … Citrobac.” below) in assay [2] was 2%. Moreover, the “% Inhibition of - lactamases at 40 μg/ml, Proteus C889” value (from here on “% Inhibition … Proteus C889”) in assay [6] amounted to 29%. Moreover, the “% Inhibition of - lactamases at 40 μg/ml, Kleb. ε 70” value (from here on “% Inhibition … Kleb. ε 70”) in assay [7] came to 14%.
In the case of `COC(=O)[C@H]1[C@H](CCOS(=O)(=O)c2ccc(C)cc2)O[C@@H]2CC(=O)N21` (relative stereo), the inhibition at 40 µg/mL in assay [1] is 11%; in assay [3], 4%; in assay [4], 33%; in assay [5], 11%. Further, the “% Inhibition … Citrobac.” value in assay [2] is 5%. Also, the “% Inhibition … Kleb. ε 70” value in assay [7] is given as 0%.
On to `O=C(O)[C@H]1CO[C@@H]2CC(=O)N12` (relative stereo) [H, Na, (2RS,5RS)], for which the inhibition at 40 µg/mL in assay [1] worked out at 14%; in assay [3], 33%; in assay [4], 28%; in assay [5], 0%. Moreover, in assay [2], the “% Inhibition … Citrobac.” value amounted to 0%. Besides, in assay [7], the “% Inhibition … Kleb. ε 70” value was 78%.
As to `O=C(OCc1ccccc1)[C@@H]1O[C@@H]2CC(=O)N2[C@H]1C(=O)OCc1ccccc1` [CO2 CH2 Ph, CO2 CH2 Ph, (2R,3R,5R), Dibenzyl (2R, 3R, 5R)-7-oxo-4-oxa-1-azabicyclo-[3.2.0]heptan-2,3-Dicarboxylate], the inhibition at 40 µg/mL in assay [1] stood at 9%; in assay [3], 0%; in assay [4], 65%; in assay [5], 26%. Besides, the “% Inhibition … Citrobac.” value in assay [2] is 2%. For the same compound, the “% Inhibition … Proteus C889” value in assay [6] stood at 23%. Besides, the “% Inhibition … Kleb. ε 70” value in assay [7] was 56%.
As for `COC(=O)[C@H]1[C@H](CBr)O[C@@H]2CC(=O)N21` (relative stereo) [CH2 Br, CO2 CH3, (2RS,3RS,5RS)], the inhibition at 40 µg/mL in assay [1] worked out at 8%; in assay [3], 12%; in assay [4], 42%; in assay [5], 17%. Also, in assay [2] (value printed in parentheses), the “I50 values (in parentheses), Citrobac.” value came out at 10.3 µg/mL. Moreover, the “% Inhibition … Proteus C889” value in assay [6] came to 42%. For the same compound, the “% Inhibition … Kleb. ε 70” value in assay [7] came out at 4%.
